We go through two compounds from patent US10428134B2, “Immunoglobulins and uses thereof” (JANSSEN PHARMACEUTICA NV, priority 2016, dated 2019).

SMILES strings stand for the structures.

The target in assay [1] is T1, PTHR1 (Homo sapiens, UniProt Q03431).
T1 construct: host or cells: cells expressing PTHR1 (unnamed vendor)
T1 sequence (Q03431 27-593): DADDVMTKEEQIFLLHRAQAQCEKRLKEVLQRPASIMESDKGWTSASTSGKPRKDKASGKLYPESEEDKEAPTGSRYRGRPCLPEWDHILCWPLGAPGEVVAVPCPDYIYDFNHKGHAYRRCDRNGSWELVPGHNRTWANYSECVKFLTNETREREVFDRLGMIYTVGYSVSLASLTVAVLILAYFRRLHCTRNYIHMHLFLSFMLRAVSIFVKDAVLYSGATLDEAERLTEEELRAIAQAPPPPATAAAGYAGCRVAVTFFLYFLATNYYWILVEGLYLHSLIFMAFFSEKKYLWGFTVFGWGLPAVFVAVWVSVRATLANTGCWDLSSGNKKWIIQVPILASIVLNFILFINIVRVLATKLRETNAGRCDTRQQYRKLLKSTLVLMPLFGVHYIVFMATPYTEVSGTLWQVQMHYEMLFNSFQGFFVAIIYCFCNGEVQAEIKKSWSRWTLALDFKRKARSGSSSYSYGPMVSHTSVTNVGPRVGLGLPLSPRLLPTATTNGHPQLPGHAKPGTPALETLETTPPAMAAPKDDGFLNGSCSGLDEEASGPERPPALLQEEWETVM
As to the kind of experiment: class B GPCR panel cAMP assay, PTHR1. The settings on record: read-out: Max response. Format: cell-based. Here is the method:
(§1) The assays were performed according to the vendor's standard operating procedures with a positive control included for each receptor tested.
In general terms: Changes in cAMP serve as a functional read-out for many G protein-coupled receptors.

In assay [2] the target is T2, CALCR (Homo sapiens, UniProt P30988).
T2 construct: host or cells: cells expressing CALCR (unnamed vendor)
T2 sequence (P30988 25-474): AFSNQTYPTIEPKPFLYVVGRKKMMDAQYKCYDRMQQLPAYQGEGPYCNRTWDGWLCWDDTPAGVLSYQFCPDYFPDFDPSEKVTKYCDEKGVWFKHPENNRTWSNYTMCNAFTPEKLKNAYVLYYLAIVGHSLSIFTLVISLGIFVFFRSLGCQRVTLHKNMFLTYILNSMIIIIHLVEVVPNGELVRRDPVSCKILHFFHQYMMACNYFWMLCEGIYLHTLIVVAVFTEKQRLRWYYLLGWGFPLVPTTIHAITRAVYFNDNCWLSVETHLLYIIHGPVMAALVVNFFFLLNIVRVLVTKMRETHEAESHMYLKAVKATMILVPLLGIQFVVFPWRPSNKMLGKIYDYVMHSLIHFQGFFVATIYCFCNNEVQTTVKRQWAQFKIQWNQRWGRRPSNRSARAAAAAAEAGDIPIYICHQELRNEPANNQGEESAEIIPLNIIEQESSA
Put plainly: class B GPCR panel cAMP assay, CALCR. Format: cell-based. As to the method: as §1

On to `CC[C@H](C)[C@H](NC(=O)[C@H](CCC(=O)O)NC(=O)[C@H](CO)NC(=O)[C@@H](NC(=O)[C@@H](N)CO)C(C)C)C(=O)N[C@@H](CCC(N)=O)C(=O)N[C@@H](CC(C)C)C(=O)N[C@@H](CCSC)C(=O)N[C@@H](Cc1cnc[nH]1)C(=O)N[C@@H](CC(N)=O)C(=O)N[C@@H](CC(C)C)C(=O)NCC(=O)N[C@@H](CCCCN)C(=O)N[C@@H](Cc1cnc[nH]1)C(=O)N[C@@H](CC(C)C)C(=O)N[C@@H](CC(N)=O)C(=O)N[C@@H](CO)C(=O)N[C@@H](CCSC)C(=O)N[C@@H](CCC(=O)O)C(=O)N[C@@H](CCCNC(=N)N)C(=O)N[C@H](C(=O)N[C@@H](CCC(=O)O)C(=O)N[C@@H](Cc1c[nH]c2ccccc12)C(=O)N[C@@H](CC(C)C)C(=O)N[C@@H](CCCNC(=N)N)C(=O)N[C@@H](CCCCN)C(=O)N[C@@H](CCCCN)C(=O)N[C@@H](CC(C)C)C(=O)N[C@@H](CCC(N)=O)C(=O)N[C@@H](CC(=O)O)C(=O)N[C@H](C(=O)N[C@@H](Cc1cnc[nH]1)C(=O)N[C@@H](CC(N)=O)C(=O)N[C@@H](Cc1ccccc1)C(=O)O)C(C)C)C(C)C` [PTH(1-34)], for which, in assay [1], the Emax was determined as 93.6%.
For `CC(C)C[C@H](NC(=O)[C@H](CCCCN)NC(=O)CNC(=O)[C@H](CC(C)C)NC(=O)[C@@H](NC(=O)[C@@H]1CSSC[C@H](N)C(=O)N[C@@H](CO)C(=O)N[C@@H](CC(N)=O)C(=O)N[C@@H](CC(C)C)C(=O)N[C@@H](CO)C(=O)N[C@@H]([C@@H](C)O)C(=O)N1)C(C)C)C(=O)N[C@@H](CO)C(=O)N[C@@H](CCC(N)=O)C(=O)N[C@@H](CCC(=O)O)C(=O)N[C@@H](CC(C)C)C(=O)N[C@@H](Cc1c[nH]cn1)C(=O)N[C@@H](CCCCN)C(=O)N[C@@H](CC(C)C)C(=O)N[C@@H](CCC(N)=O)C(=O)N[C@H](C(=O)N[C@@H](Cc1ccc(O)cc1)C(=O)N1CCC[C@H]1C(=O)N[C@@H](CCCNC(=N)N)C(=O)N[C@H](C(=O)N[C@@H](CC(N)=O)C(=O)N[C@H](C(=O)NCC(=O)N[C@@H](CO)C(=O)NCC(=O)N[C@H](C(=O)N1CCC[C@H]1C(N)=O)[C@@H](C)O)[C@@H](C)O)[C@@H](C)O)[C@@H](C)O` [Calcitonin], in assay [2] (CALCR cAMP assay), the “Curve Bottom” value is reported as −6.2187, the “Curve Top” value is given as 105 and the Hill is given as 1.5254. The Emax in assay [2] (read-out: Max response) is 101%.
